34 compounds from patent publication US8236835B2, “Heterocyclic inhibitors of stearoyl-CoA desaturase” (Novartis AG, priority 2006, dated 2012) can be followed below.

SMILES strings stand for the structures.

Consider `Cc1nc(N2CCCC2=O)sc1C(=O)NCc1ccccc1` [Example 1, N-benzyl-4-methyl-2-(2-oxopyrrolidin-1-yl)thiazole-5-carboxamide], for which the melting point – broadly, the temperature, or range, at which the solid turns liquid – was 222 to 224 °C.

In the case of `Cc1nc(N2CCCC(Cc3cccnc3)C2=O)sc1C(=O)NCc1ccccc1` (stereo not shown) [Example 11, N-benzyl-4-methyl-2-(2-oxo-3-(pyridin-3-ylmethyl)piperidin-1-yl)thiazole-5-carboxamide], the melting point was 140 to 141 °C.

In turn, `Cc1nc(N2CCCC(NCc3ccc(C(F)(F)F)cc3)C2=O)sc1C(=O)NCc1ccccc1` (stereo not shown) [Example 5.3, N-benzyl-4-methyl-2-(2-oxo-3-(4-(trifluoromethyl)benzylamino)piperidin-1-yl)thiazole-5-carboxamide] yielded a melting point of 39 to 40 °C.

For the compound `Cc1nc(N2CC(Cc3ccccc3)CC2=O)sc1C(=O)NCc1ccccc1` (stereo not shown) [Example 6, N-benzyl-2-(4-benzyl-2-oxopyrrolidin-1-yl)-4-methylthiazole-5-carboxamide], the melting point lay in the range of 143 to 144 °C.

`Cc1nc(N2CCCC(Cc3ccc(C(F)(F)F)cc3)C2=O)sc1C(=O)NCc1cccc(F)c1` (stereo not shown) [Example 2.14, N-(3-fluorobenzyl)-4-methyl-2-(2-oxo-3-(4-(trifluoromethyl)benzyl)piperidin-1-yl)thiazole-5-carboxamide]: the melting point is 177 to 178 °C.

Turning to `Cc1nc(N2CCCC(CCc3ccccc3)C2=O)sc1C(=O)NCc1ccccc1` (stereo not shown) [Example 3.1, N-benzyl-4-methyl-2-(2-oxo-3-phenethylpiperidin-1-yl)thiazole-5-carboxamide], the melting point fell in the range of 124 to 126 °C.

`Cc1nc(N2CCC(Cc3ccc(F)cc3)C2=O)sc1C(=O)NCc1ccc(F)cc1` (stereo not shown) [Example 2.1, N-(4-fluorobenzyl)-2-(3-(4-fluorobenzyl)-2-oxopyrrolidin-1-yl)-4-methylthiazole-5-carboxamide] gave a melting point of 196 to 197 °C.

In turn, `Cc1nc(N2CCC(Cc3ccc(OC(F)F)cc3)C2=O)sc1C(=O)NCc1ccccc1` (stereo not shown) [Example 2.5, N-benzyl-2-(3-(4-(difluoromethoxy)benzyl)-2-oxopyrrolidin-1-yl)-4-methylthiazole-5-carboxamide] had a melting point of 132 to 133 °C.

Take `Cc1nc(N2CCCC(Cc3cccc(F)c3)C2=O)sc1C(=O)NCc1ccccc1` (stereo not shown) [Example 2.8, N-benzyl-2-(3-(3-fluorobenzyl)-2-oxopiperidin-1-yl)-4-methylthiazole-5-carboxamide]: the melting point is 170 to 171 °C.

On to `Cc1nc(N2CCCC(NCC3CC3)C2=O)sc1C(=O)NCc1ccccc1` (stereo not shown) [Example 5.4, N-benzyl-2-(3-(cyclopropylmethylamino)-2-oxopiperidin-1-yl)-4-methylthiazole-5-carboxamide], for which the melting point was in the range of 125 to 126 °C.

The compound `Cc1ccc(CC2CCCN(c3nc(C)c(C(=O)NCc4ccccc4)s3)C2=O)cc1` (stereo not shown) [Example 2.7, N-benzyl-4-methyl-2-(3-(4-methylbenzyl)-2-oxopiperidin-1-yl)thiazole-5-carboxamide] showed a melting point of 110 to 113 °C.

As to `Cc1nc(N2CCC(NCc3ccc(F)cc3)C2=O)sc1C(=O)NCc1ccc(F)cc1` (stereo not shown) [Example 5.1, N-(4-fluorobenzyl)-2-(3-(4-fluorobenzylamino)-2-oxopyrrolidin-1-yl)-4-methylthiazole-5-carboxamide], the melting point is 123 to 124 °C.

Regarding `Cc1nc(N2CCC(Cc3ccc(C(F)(F)F)cc3)C2=O)sc1C(=O)NCc1ccc(F)cc1` (stereo not shown) [Example 2, N-(4-fluorobenzyl)-4-methyl-2-(2-oxo-3-(4-(trifluoromethyl)benzyl)pyrrolidin-1-yl)thiazole-5-carboxamide], the melting point lay in the range of 175 to 176 °C.

The compound `Cc1nc(N2CCCC(Cc3ccc(F)cc3)C2=O)sc1C(=O)NCc1ccccc1` (stereo not shown) [Example 2.12, N-benzyl-2-(3-(4-fluorobenzyl)-2-oxopiperidin-1-yl)-4-methylthiazole-5-carboxamide] gave a melting point of 154 to 155 °C.

As for `Cc1nc(N2C[C@H](O)CC2=O)sc1C(=O)NCc1ccccc1` [Example 7.1, (R)-N-benzyl-2-(4-hydroxy-2-oxopyrrolidin-1-yl)-4-methylthiazole-5-carboxamide], the melting point is 203 to 204 °C.

As for `Cc1nc(N2CCCC(Cc3ccccc3)C2=O)sc1C(=O)NCc1ccccc1` (stereo not shown) [Example 2.11, N-benzyl-2-(3-benzyl-2-oxopiperidin-1-yl)-4-methylthiazole-5-carboxamide], the melting point is 162 to 164 °C.

`Cc1nc(N2CCCCC2=O)sc1C(=O)NCc1ccccc1` [Example 1.2, N-benzyl-4-methyl-2-(2-oxopiperidin-1-yl)thiazole-5-carboxamide] came in with a melting point of 175 to 176 °C.

In turn, `Cc1nc(N2CCC(NCCC3CC3)C2=O)sc1C(=O)NCc1ccc(F)cc1` (stereo not shown) [Example 5, 2-(3-(2-cyclopropylethylamino)-2-oxopyrrolidin-1-yl)-N-(4-fluorobenzyl)-4-methylthiazole-5-carboxamide] came in with a melting point of 151 to 152 °C.

The compound `Cc1nc(N2CCCC(Cc3ccc(C(F)(F)F)cc3)C2=O)sc1C(=O)NCc1ccccc1` (stereo not shown) [Example 2.6, N-benzyl-4-methyl-2-(2-oxo-3-(4-(trifluoromethyl)benzyl)piperidin-1-yl)thiazole-5-carboxamide] came in with a melting point of 217 to 218 °C.

`Cc1nc(N2CCC(CC3CC3)C2=O)sc1C(=O)NCc1ccc(F)cc1` (stereo not shown) [Example 3, 2-(3-(cyclopropylmethyl)-2-oxopyrrolidin-1-yl)-N-(4-fluorobenzyl)-4-methylthiazole-5-carboxamide] registered a melting point of 153 to 155 °C.

`Cc1nc(N2C[C@@H](O)CC2=O)sc1C(=O)NCc1ccccc1` [Example 7, (S)-N-benzyl-2-(4-hydroxy-2-oxopyrrolidin-1-yl)-4-methylthiazole-5-carboxamide] came in with a melting point of 203 to 204 °C.

Regarding `Cc1nc(N2CCC(Cc3ccc(C(F)(F)F)cc3)C2=O)sc1C(=O)NCc1ccccc1` (stereo not shown) [Example 2.4, N-benzyl-4-methyl-2-(2-oxo-3-(4-(trifluoromethyl)benzyl)pyrrolidin-1-yl)thiazole-5-carboxamide], the melting point lay within 174 to 175 °C.

Compound `Cc1nc(N2CCC(Cc3ccc(F)cc3)C2=O)sc1C(=O)NCc1cccnc1` (stereo not shown) [Example 8, 2-(3-(4-fluorobenzyl)-2-oxopyrrolidin-1-yl)-4-methyl-N-(pyridin-3-ylmethyl)thiazole-5-carboxamide] yielded a melting point of 169 to 170 °C.

Compound `Cc1nc(N2CCCC(C(O)c3ccccc3)C2=O)sc1C(=O)NCc1ccccc1` (stereo not shown) [Example 10, N-benzyl-2-(3-(hydroxy(phenyl)methyl)-2-oxopiperidin-1-yl)-4-methylthiazole-5-carboxamide] had a melting point of 74 to 75 °C.

The compound `Cc1nc(N2CCC(Cc3ccc(OC(F)(F)F)cc3)C2=O)sc1C(=O)NCc1ccc(F)cc1` (stereo not shown) [Example 2.3, N-(4-fluorobenzyl)-4-methyl-2-(2-oxo-3-(4-(trifluoromethoxy)benzyl)pyrrolidin-1-yl)thiazole-5-carboxamide] registered a melting point of 165 to 166 °C.

On to `Cc1nc(N2CCCC(Cc3ccc(F)cc3)C2=O)sc1C(=O)NCc1cccc(F)c1` (stereo not shown) [Example 2.13, N-(3-fluorobenzyl)-2-(3-(4-fluorobenzyl)-2-oxopiperidin-1-yl)-4-methylthiazole-5-carboxamide], for which the melting point was 173 to 175 °C.

In turn, `Cc1nc(N2CCC/C(=C\c3cccnc3)C2=O)sc1C(=O)NCc1ccccc1` [Example 10.2, N-benzyl-4-methyl-2-(2-oxo-3-(pyridin-3-ylmethylene)piperidin-1-yl)thiazole-5-carboxamide] displayed a melting point of 206 to 208 °C.

The compound `COc1ccc(CC2CCCN(c3nc(C)c(C(=O)NCc4ccccc4)s3)C2=O)cc1` (stereo not shown) [Example 2.9, N-benzyl-2-(3-(4-methoxybenzyl)-2-oxopiperidin-1-yl)-4-methylthiazole-5-carboxamide] had a melting point of 116 to 118 °C.

The compound `Cc1nc(N2CCC(Cc3ccc(OC(F)(F)F)cc3)C2=O)sc1C(=O)NCc1cccnc1` (stereo not shown) [Example 8.1, 4-methyl-2-(2-oxo-3-(4-(trifluoromethoxy)benzyl)pyrrolidin-1-yl)-N-(pyridin-3-ylmethyl)thiazole-5-carboxamide] yielded a melting point of 158 to 160 °C.

In the case of `CCc1ccc(/C=C2\CCCN(c3nc(C)c(C(=O)NCc4ccccc4)s3)C2=O)s1` [Example 10.1, N-benzyl-2-(3-((5-ethylthiophen-2-yl)methylene)-2-oxopiperidin-1-yl)-4-methylthiazole-5-carboxamide], the melting point fell in the range of 171 to 172 °C.

As to `Cc1nc(N2CCC(NCCC(F)(F)F)C2=O)sc1C(=O)NCc1ccc(F)cc1` (stereo not shown) [Example 5.2, N-(4-fluorobenzyl)-4-methyl-2-(2-oxo-3-(3,3,3-trifluoropropylamino)pyrrolidin-1-yl)thiazole-5-carboxamide], the melting point fell in the range of 142 to 143 °C.

In the case of `Cc1nc(N2CCC(Cc3ccc(OC(F)F)cc3)C2=O)sc1C(=O)NCc1ccc(F)cc1` (stereo not shown) [Example 2.2, 2-(3-(4-(difluoromethoxy)benzyl)-2-oxopyrrolidin-1-yl)-N-(4-fluorobenzyl)-4-methylthiazole-5-carboxamide], the melting point lay within 143 to 145 °C.

In turn, `Cc1nc(N2CCCC(Cc3cc(F)ccc3F)C2=O)sc1C(=O)NCc1ccccc1` (stereo not shown) [Example 2.10, N-benzyl-2-(3-(2,5-difluorobenzyl)-2-oxopiperidin-1-yl)-4-methylthiazole-5-carboxamide] came in with a melting point of 144 to 145 °C.

Regarding `Cc1nc(N2CCCC(CCCc3ccccc3)C2=O)sc1C(=O)NCc1ccccc1` (stereo not shown) [Example 3.2, N-benzyl-4-methyl-2-(2-oxo-3-(3-phenylpropyl)piperidin-1-yl)thiazole-5-carboxamide], the melting point was 140 to 141 °C.
